Measurements reported in ChEMBL document CHEMBL6114949, “Synthesis and physiological effects of new 4-aminophenol derivatives as paracetamol analogues” (Bioorg Med Chem Lett, 2025).
Calls of active or inactive are those of the source. No cut-off for these calls is given here.

Experiments:
[1] = Hepatotoxicity in zymosan-induced rat arthritis model assessed as appearance of vacuoles in hepatocyte cytoplasm at 240 mg/kg, ig administered once daily for 7 days by hematoxylin-eosin staining based histological analysis; format: toxicity, organism-based, Liver; details: in vivo, po, 168 h, time 7 day
Rattus norvegicus [2] = assay: Antipyretic activity against LPS-induced polyphasic febrile response in rats assessed as suppression of rise in core body temperature at 240 mg/kg, po treated 40 mins prior to LPS addition and measured after 200 mins; format: functional, organism-based; details: time 240.0 min
Rattus norvegicus [3] = assay: Antipyretic activity against LPS-induced polyphasic febrile response in rats assessed as suppression of rise in core body temperature at 240 mg/kg, po treated 40 mins prior to LPS addition and measured after 160 mins relative to control; format: functional; details: time 200 min, 3.333 h
[4] = Hepatotoxicity in zymosan-induced rat arthritis model assessed as change in hepatocyte karyoplasm at 240 mg/kg, ig administered once daily for 7 days by hematoxylin-eosin staining based histological analysis; format: toxicity, organism-based, Liver; details: in vivo, po, 168 h, time 7 day
Rattus norvegicus [5] = assay: Antinociceptive activity in zymosan-induced rat model of thermal nociceptive hypersensitivity assessed as nociceptive response inhibition at 240 mg/kg, ig administered once daily for 7 days and measured 1 hr post-zymosan challenge on day 7 by hot-plate test (reference value: -42.4%); format: functional; details: po, 168 h, time 7 day
[6] = Hepatotoxicity in zymosan-induced rat arthritis model assessed as effect on sinusoids arrangement at 240 mg/kg, ig administered once daily for 7 days by hematoxylin-eosin staining based histological analysis; format: toxicity, organism-based, Liver; details: in vivo, po, 168 h, time 7 day
[7] = Hepatotoxicity in zymosan-induced rat arthritis model assessed as disruption of hepatocyte membrane at 240 mg/kg, ig administered once daily for 7 days by hematoxylin-eosin staining based histological analysis; format: toxicity, organism-based, Liver; details: in vivo, po, 168 h, time 7 day
[8] = Hepatotoxicity in zymosan-induced rat arthritis model assessed as change in hepatocyte shape at 240 mg/kg, ig administered once daily for 7 days by hematoxylin-eosin staining based histological analysis; format: toxicity, organism-based, Liver; details: in vivo, po, 168 h, time 7 day
[9] = Hepatotoxicity in zymosan-induced rat arthritis model assessed as effect on beam structure of liver at 240 mg/kg, ig administered once daily for 7 days by hematoxylin-eosin staining based histological analysis; format: toxicity, organism-based; details: in vivo, po, 168 h, time 7 day
Rattus norvegicus [10] = assay: Antinociceptive activity in zymosan-induced rat arthritis model assessed as nociceptive response inhibition at 240 mg/kg, ig administered once daily for 7 days and measured 1 hr post-zymosan challenge on day 7 by Randall-Selitto test (reference value: -34.6%); format: functional; details: po, 168 h, time 7 day
[11] = Hepatotoxicity in zymosan-induced rat arthritis model assessed as change in shape of liver central veins at 240 mg/kg, ig administered once daily for 7 days by hematoxylin-eosin staining based histological analysis; format: toxicity, organism-based; details: in vivo, po, 168 h, time 7 day
[12] = Hepatotoxicity in zymosan-induced rat arthritis model assessed as change in hepatocyte cytoplasmic appearance at 240 mg/kg, ig administered once daily for 7 days by hematoxylin-eosin staining based histological analysis; format: toxicity, organism-based, Liver; details: in vivo, po, 168 h, time 7 day
Rattus norvegicus [13] = assay: Antipyretic activity against LPS-induced polyphasic febrile response in rats assessed as suppression of rise in core body temperature at 240 mg/kg, po treated 40 mins prior to LPS addition and measured after 10 mins; format: functional, organism-based; details: time 50.0 min
[14] = Hepatotoxicity in zymosan-induced rat arthritis model assessed as effect on sinusoids elongation at 240 mg/kg, ig administered once daily for 7 days by hematoxylin-eosin staining based histological analysis; format: toxicity, organism-based, Liver; details: in vivo, po, 168 h, time 7 day
Rattus norvegicus [15] = assay: Antipyretic activity against LPS-induced polyphasic febrile response in rats assessed as change in core body temperature at 240 mg/kg, po treated 40 mins prior to LPS addition and measured after 160 mins during phase 1 (reference value: 0.85 deg C); format: functional, organism-based; details: time 200.0 min
[16] = Hepatotoxicity in zymosan-induced rat arthritis model assessed as effect on general architecture of liver at 240 mg/kg, ig administered once daily for 7 days by hematoxylin-eosin staining based histological analysis; format: toxicity, organism-based; details: in vivo, po, 168 h, time 7 day
[17] = Hepatotoxicity in zymosan-induced rat arthritis model assessed as change in hepatocyte nucleus size at 240 mg/kg, ig administered once daily for 7 days by hematoxylin-eosin staining based histological analysis; format: toxicity, organism-based, Liver; details: in vivo, po, 168 h, time 7 day
[18] = Hepatotoxicity in zymosan-induced rat arthritis model assessed as change in shape of liver portal tracts at 240 mg/kg, ig administered once daily for 7 days by hematoxylin-eosin staining based histological analysis; format: toxicity, organism-based; details: in vivo, po, 168 h, time 7 day

CCCCCCCCCCCCCCCC(=O)Nc1ccc(OCC(=O)NCCO)cc1
Activity [1]: Non-toxic | Activity (Rattus norvegicus [2]): Active | fold change (FC) (Rattus norvegicus [3]): 3 | Activity [4]: Non-toxic | inhibition in vivo at 240 mg/kg (Rattus norvegicus [5]): 29.8% | Activity [6]: Non-toxic | Activity [7]: Non-toxic | Activity [8]: Non-toxic | Activity [9]: Non-toxic | inhibition in vivo at 240 mg/kg (Rattus norvegicus [10]): 23.1% | Activity [11]: Non-toxic | Activity [12]: Non-toxic | Activity (Rattus norvegicus [13]): Active | Activity [14]: Non-toxic | ΔTm (Rattus norvegicus [15]): 0.28 °C | Activity [16]: Non-toxic | Activity [17]: Non-toxic | Activity [18]: Non-toxic
